Experimental data from ChEMBL document CHEMBL5244248, “A novel long-acting oxyntomodulin analogue eliminates diabetes and obesity in mice” (Eur J Med Chem, 2020).

Test system: INS1
Experiment: Anti-apoptotic activity in rat INS1 cells assessed as reduction in cytokine-induced cell apoptosis at 100 nM treated for 1 hr prior to TNF-alpha and IL-1beta challenge
Type: functional

CC[C@H](C)[C@H](NC(=O)[C@H](Cc1ccccc1)NC(=O)[C@H](CCC(=O)O)NC(=O)[C@H](CCCCN)NC(=O)[C@H](C)NC(=O)[C@H](C)NC(=O)[C@H](CCC(N)=O)NC(=O)CNC(=O)[C@H](CCC(=O)O)NC(=O)[C@H](CC(C)C)NC(=O)[C@H](Cc1ccc(O)cc1)NC(=O)[C@H](CO)NC(=O)[C@H](CO)NC(=O)[C@@H](NC(=O)[C@H](CC(=O)O)NC(=O)[C@H](CO)NC(=O)[C@@H](NC(=O)[C@H](Cc1ccccc1)NC(=O)[C@@H](NC(=O)CNC(=O)[C@H](CCC(=O)O)NC(=O)[C@H](C)NC(=O)[C@@H](N)Cc1cnc[nH]1)[C@@H](C)O)[C@@H](C)O)C(C)C)C(=O)N[C@@H](C)C(=O)N[C@@H](Cc1c[nH]c2ccccc12)C(=O)N[C@@H](CC(C)C)C(=O)N[C@H](C(=O)N[C@@H](CCCCN)C(=O)NCC(=O)N[C@@H](CCCNC(=N)N)C(=O)O)C(C)C
inhibition at 0.1 µM: 40.4%
